The assay concerns MUC5AC transcription. The assay is described as follows: MUC5AC promoter-luciferase reporter assay (pMUC5AC3.7luc) in human epithelial cells. The assay is classed as cell-based. On the procedure: The luciferase assay was performed as follows: expression plasmids fp38α(AF) and fp38β(AF) were previously described in Shuto, et al. (2001) Proc. Natl, Acad. Sci. U.S.A. 98, pages 8774-9. The expression plasmids p110, p85α, Akt KD, and Akt WT were provided by D. Stokoe (University of California, San Francisco). The reporter construct MUC5AC contained 3.7-kb 5′-flanking region of the human MUC5AC mucin gene in a luciferase reporter vector pGL3 (Li, et al. 1998, J. Biol. Chem. 273, 68126820). Transient transfections of cells were performed in triplicate with Trans IT-LT1 (Panvera, Madison, WT) following the manufacturer's instructions. Forty-two hours after transfection, the cells were treated with NTHi for 4 h and then harvested for use in the luciferase assay. For experiments with inhibitors, HM3 cells stably transfected with MUC5AC-luciferase plasmid were pretreated with inhibitors for 1-2 h, then treated with NTHi for 4 h and harvested for luciferase assays. Luciferase assays were performed on a Monolight 3010 luminometer for 15 s (Analytical Luminescence, San Diego, Calif.). The NTHi-dependent fold induction was calculated relative to the luciferase light units obtained in the absence of NTHi treatment. The normalized luciferase activity was thus expressed as relative luciferase activity (fold induction).
On the technique in general: Reporter assays use an easily measured gene product as a stand-in for the process of interest.

Here are results for two compounds from patent publication US20020151491A1, “Composition and method for treating the over-production of mucin in diseases such as otitis media using an inhibitor of MUC5AC” (priority 2000, published 2002).

For `C[S+]([O-])c1ccc(-c2nc(-c3ccncc3)c(-c3ccc(F)cc3)[nH]2)cc1` (stereo not shown) [SB203580], the “effect on NTHi-induced MUC5AC transcription (luciferase activity)” value (HM3 cells stably transfected with pMUC5AC3.7luc, pretreated with inhibitor 1-2 h, then NTHi SCF 4 h) is recorded as “inhibited MUC5AC induction in response to NTHi cytoplasmic proteins in a dose-dependent manner”. The “effect on NTHi-induced MUC5AC transcription in cells already pretreated with wortmannin” value (HM3 cells stably transfected with pMUC5AC3.7luc, wortmannin pretreatment first) is “still capable of inhibiting NTHi-induced MUC5AC transcription”.
For Polymyxin B, the “effect on MUC5AC transcription induced by LPS from S. typhimurium” value (LPS pretreated with various concentrations of polymyxin B 10 min at 4° C., HM3 pMUC5AC3.7luc cells, 4 h) was “significantly reduced MUC5AC transcription”. For the same compound, the “effect on MUC5AC transcription induced by NTHi soluble cytoplasmic fraction” value (SCF pretreated with various concentrations of polymyxin B for 10 min, HM3 pMUC5AC3.7luc cells) was “no significant reduction in NTHi-induced MUC5AC transcription”.
